# Data taken from patent publication US20210181183A1, “METHODS FOR DETERMINING SELECTIVITY OF TEST COMPOUNDS” (CEMM - FORSCHUNGSZENTRUM FÜR MOLEKULARE MEDIZIN GmBH, priority 2017, published 2021).
# Experiments:
# [1] = test system: CD20+ cells over CD20- cells of a B-cell lymphoblastic lymphoma patient; assay: ex vivo selectivity of compounds to kill cancerous versus non-cancerous cells, pleural effusion of B-LBL patient (Example 7); assay type: cell-based, human; conditions: fraction of live cancerous cells of live total cells relative to DMSO control, <1 = selectively kills cancerous cells
# [2] = test system: CD79a+ cells over CD79a- cells of a diffuse large B-cell lymphoma patient; assay: ex vivo selectivity of compounds to kill cancerous versus non-cancerous cells, excised lymph node of DLBCL patient (Example 8); assay type: cell-based, human; conditions: fraction of live cancerous cells of live total cells relative to DMSO control; dissociated lymph node cells; <1 = selectively kills cancerous cells
# Method: Monolayers were incubated overnight (18 h). […] Unstained cells were considered non-cancerous cells.
Structure (SMILES),value/selectivity determined according to the present invention [1],value/selectivity [2]
Sc1ncnc2nc[nH]c12 [6-mercaptopurine],0.58,
CC(C)C[C@H](NC(=O)[C@H](Cc1ccccc1)NC(=O)c1cnccn1)B(O)O [bortezomib],0.50,0.59
Nc1nc(Cl)nc2c1ncn2[C@H]1C[C@H](O)[C@@H](CO)O1 [cladribine],,0.73
